Measured values taken from US20040242502A1, “Semi-synthetic saponin analogs with carrier and immune stimulatory activities for DNA and RNA vaccines” (Galenica Pharmaceuticals, Inc., priority 2003, published 2004).
“And” between values parts separate entries of the source, which are not always exact repeats. Equal values may be shown once.

System: Female Balb/c mice
Test: Immunization of Balb/c mice with OVA cDNA in the presence and absence of DMPS; anti-OVA antibody ELISA of serum
Format: in vivo
Conditions: anti-OVA ELISA on OVA coated plates, serum dilution 1:100, bled 14 days after last immunization, i.m. days 1 and 15, 20 OVA DNA alone or +50 DMPS
Procedure: Female Balb/c mice were immunized intramuscularly at days 1 and 15 with 0.2 mL of phosphate buffered saline solution (PBS) containing 20 μg of chicken OVA cDNA alone or with 50 μg of 3-dimethylamino-1-propylamino-DS-saponin (DMPS). The complete OVA cDNA was sub-cloned into a mammalian expression vector containing the human β-actin promotor and the neomycin resistant gene, under control of the SV40 promotor, to yield pAC-Neo-OVA. Negative control animals received PBS only. Animals were bled 14 days after the last immunization. Total IgG and IgG2a were determined by ELISA using OVA coated plates and a serum dilution of 1:100. The serum dilution was incubated at 37° C. for 1 hour and the plates were washed. After incubation with anti IgG-HRP conjugate, the plates were washed and developed with a TMB substrate for 15 minutes at room temperature, stopped by the addition of 0.18 M sulfuric acid, and read at 450 nm.

3-dimethylamino-1-propylamino-DS-saponin [DMPS]
Absorbance (450 nm), Average (average of 5 mice ± spread): 0.188 ± 0.093 | Absorbance (450 nm), individual mice (mice 1-5): 0.400 and 0.210 and 0.092 and 0.140 and 0.100
